Results published in patent US4352799A, “2-Phenyl-1,2-benzisoselenazol-3(2H)-one containing pharmaceutical preparations and process for the treatment of rheumatic diseases” (A. Nattermann & Cie GmbH, priority 1980, dated 1982).

Tests used:
[1] = test system: edema in hindpads of rats; experiment: rat pad edema test (HILLEBRECHT, Carragenine); assay type: in vivo; conditions: 3 hours
Method: The antiphlogistic properties are determined in the rat pad edema test according to HILLEBRECHT (J. HILLEBRECHT, Arzneim. Forsch. 1954, vol. 4, p. 607). In this test, the formation of an edema is caused in one of the hindpads of rats weighing each 200 to 250 grams, by subplantar injection of Carragenine (0.5% in 0.9% NaCl solution) in an amount of 0.1 ml. solution per each pad. After administration of the test compound in an amount which in general should not be larger than a volume of 10 ml. per kg. body weight, the volume of the pad is determined in an overflow. 3 hours after administration of the test compound the final volume is determined. The test is carried out with 10 test animals and 10 control animals of one sex per each dose and is repeated with the same number of animals of the other sex. For evaluation purposes the percent inhibition of edema formation is determined over the control group.

[2] = test system: granuloma in the connective tissue; experiment: Granuloma test (cotton-pellet-test) according to R. MEIER; assay type: in vivo, rat
Text: In this test, cotton pellets impregnated with crotone oil are implanted subcutaneously into the test animals (rats) which impregnated cotton pellets cause the formation of granuloma in the connective tissue. After killing of the test animals, the granuloma are separated and recovered and are weighed as wet or dry tissue. The anti-proliferatic activity of an antiphlogistic agent is expressed in a lower granuloma weight in comparison to untreated control animals.

[3] = test system: arthritis caused by Freud adjuvans (pad volume); experiment: Adjunct-Arthritis (C. M. PEARSON); assay type: in vivo, rat (wistar)
Method: There are used 10 wistar rats each weighing 120 to 150 g. per each dose. The same number of animals is used as control group. An arthritis is caused by subplantar injection of 0.5 ml. of Freud adjuvans. The test duration is 17 days. At the beginning of the test the volume of the pads of all for legs is determined as starting value. The volume is further determined on the 8th, 14th and 17th day of the test. In the evaluation, the difference between the pad volume at the beginning and at the end of the test is determined both in the test group as well as in the control group. The test result, i.e. the inhibition of the growth of the pad volume is expressed in percent.

[4] = test system: ulcus formation of the stomach; experiment: Ulcus test; assay type: in vivo, rat (wistar); conditions: 3.5 hours
Method: The determination of ulcus formation is carried out according to W. J. R. WHITTLE, Brit.J.Pharmacology 1975, vol. 55, pgs. 242 to 243; L. MARIANI, Europ. J. Toxicol. Eviron, 1975, vol. 8, pgs. 335 to 339; R. MENGUY and L. DESBAILLETS, Proc.Soc.Exp.Bio., vol. 125, p. 1108. In this test, 10 female and 10 male wistar rats are used each weighing 120 to 150 g. and which had been fed only with […] for 2 days and were kept thereafter without feeding for 16 hours. The formation of a bleeding ulcus of the stomach was provocated by oral application of the compound to be tested. 3.5 hours after administration the test animals were killed, the stomach was separated, opened along the large curvature and fixed to a polystyrol plate. There is determined the number and size of average ulcus formation both in the test group and in the control group.

[5] = test system: arthritis caused by Freud adjuvans (pad volume); experiment: Adjunct-Arthritis (C. M. PEARSON); assay type: in vivo, rat (wistar); conditions: 7th day p.i.
[6] = 0.1 mg./kg. p.o., 14th day p.i.
[7] = 0.1 mg./kg. p.o., 17th day p.i.

Structure (SMILES): O=c1c2ccccc2[se]n1-c1ccccc1 [2-Phenyl-1.2-benzisoselenazol-3(2H)-one, 2-phenyl-1.2-benzisoselenazol-3(2H)-one]
- Edema inhibition, inhibitory effect ([1]; 0.1 mg./kg. i.m.): -23%
- Edema inhibition, inhibitory effect ([1]; 0.1 mg./kg. p.o.): -1%
- Edema inhibition, inhibitory effect ([1]; 1.0 mg./kg. i.m.): -62%
- Edema inhibition, inhibitory effect ([1]; 1.0 mg./kg. p.o.): -57%
- Edema inhibition, inhibitory effect ([1]; 10 mg./kg. i.m.): -35%
- Edema inhibition, inhibitory effect ([1]; 10 mg./kg. p.o.): -40%
- Decrease of granuloma weight ([2]; 0.1 mg./kg. p.o.): -22%
- Decrease of granuloma weight ([2]; 1 mg./kg. p.o.): -21%
- Decrease of granuloma weight ([2]; 10 mg./kg. p.o.): -20%
- inhibitory effect (growth of pad volume) [3, 6]: -10%
- inhibitory effect (growth of pad volume) [3, 7]: -13%
- inhibitory effect (growth of pad volume) ([3]; 1 mg./kg. p.o., 14th day p.i.): -36%
- inhibitory effect (growth of pad volume) ([3]; 1 mg./kg. p.o., 17th day p.i.): -33%
- inhibitory effect (growth of pad volume) ([3]; 10 mg./kg. p.o., 14th day p.i.): -22%
- inhibitory effect (growth of pad volume) ([3]; 10 mg./kg. p.o., 17th day p.i.): -24%
- toxicity effects ([3]; at higher doses, p.o.): no toxicity effects occur
- Ulcus formation, effectiveness ([4]; 1 mg./kg. p.o.): 0
- Ulcus formation, effectiveness ([4]; 10 mg./kg. p.o.): 0
- Ulcus formation, effectiveness ([4]; 100 mg./kg. p.o.): 0
- inhibitory effect (growth of pad volume) ([5]; 0.1 mg./kg. p.o.): -22%
- inhibitory effect (growth of pad volume) ([5]; 1 mg./kg. p.o.): -46%
- inhibitory effect (growth of pad volume) ([5]; 10 mg./kg. p.o.): -30%
- mortality (Toxicity in rats, p.o.; rat, in vivo, po, 4600 mg/kg): 0%
- dose at lethality 0% (Toxicity in rats, p.o.; rats, p.o.): 4,600 mg./kg.
- dose at lethality 0% (Toxicity in mice, p.o.; mice, p.o.): > 2,150 mg./Kg.
- mortality (Toxicity in mice, p.o.; mouse, in vivo, po, 2150 mg/kg): 0%

Structure (SMILES): COc1ccc2c(c1)c(CC(=O)O)c(C)n2C(=O)c1ccc(Cl)cc1 [Indometacin, reference compound]
- Edema inhibition, inhibitory effect ([1]; 1.0 mg./kg. i.m.): -9%
- Edema inhibition, inhibitory effect ([1]; 3 mg./kg. i.m.): -23%
- Edema inhibition, inhibitory effect ([1]; 3.8 mg./kg. p.o.): -26%
- Edema inhibition, inhibitory effect ([1]; 5.6 mg./kg. p.o.): -45%
- Edema inhibition, inhibitory effect ([1]; 8.3 mg./kg. p.o.): -57%
- Edema inhibition, inhibitory effect ([1]; 10 mg./kg. i.m.): -33%
- Decrease of granuloma weight ([2]; 1 mg./kg. p.o.): -21%
- Decrease of granuloma weight ([2]; 3.2 mg./kg. p.o.): -7%
- Decrease of granuloma weight ([2]; 5.6 mg./kg. p.o.): -6%
- inhibitory effect (growth of pad volume) [3, 6]: -25%
- inhibitory effect (growth of pad volume) [3, 7]: -37%
- inhibitory effect (growth of pad volume) ([3]; 1 mg./kg. p.o., 14th day p.i.): -40%
- inhibitory effect (growth of pad volume) ([3]; 1 mg./kg. p.o., 17th day p.i.): -40%
- lethality given in place of inhibitory effect ([3]; 10 mg./kg. p.o., 14th day p.i.): lethal
- lethality given in place of inhibitory effect ([3]; 10 mg./kg. p.o., 17th day p.i.): lethal
- inhibitory effect (growth of pad volume) ([5]; 0.1 mg./kg. p.o.): -32%
- inhibitory effect (growth of pad volume) ([5]; 1 mg./kg. p.o.): -50%
- lethality given in place of inhibitory effect ([5]; 10 mg./kg. p.o.): lethal
- LD50 (Toxicity in rats, p.o.; rat, in vivo, po): 38 mg/kg
- mortality (Toxicity in rats, p.o.; rat, in vivo, po, 38 mg/kg): 50%
- LD50 (Toxicity in mice, p.o.; mouse, in vivo, po): 19 mg/kg
- mortality (Toxicity in mice, p.o.; mouse, in vivo, po, 19 mg/kg): 50%
